Test results reported in patent US9669028B2, “Substituted 5-(pyrazin-2-yl)-1H-pyrazolo [3, 4-B] pyridine and pyrazolo [3, 4-B] pyridine derivatives as protein kinase inhibitors” (Arrien Pharmaceuticals LLC, priority 2011, dated 2017).

Tests used:
Assay type in all cases: biochemical
LRRK2 = LRRK2 (Homo sapiens (Human), UniProt Q5S007); assay: LRRK2 Kinase Assay; conditions: 10 μM ATP
Description: (§1) Briefly, specific kinase/substrate pairs along with required cofactors were prepared in reaction buffer; 20 mM Hepes (pH 7.5), 10 mM MgCl2, 1 mM EGTA, 0.02% Brij35, 0.02 mg/ml BSA, 0.1 mM Na3VO4, 2 mM DTT, 1% DMSO. Compounds were delivered into the reaction, followed ˜20 min later by addition of a mixture of ATP (Sigma) and 33P ATP (PerkinElmer) to a final concentration of 10 μM. […] IC50 values and curve fits were obtained using Prism (GraphPad Software). Kinome tree representations were prepared using Kinome Mapper (http://www.reactionbiology.com/apps/kinome/mapper/Launch Kinome.htm).
For the wild type LRRK the 2×LRRK2/ERM (LRRKtide) mixture was prepared in 50 mM Tris pH 8.5, 0.01% BRIJ-35, 10 mM MgCl2, 1 mM EGTA, 0.02% NaN3. […] After 1 hour Kinase Reaction incubation, 5 μL of Detection Mix was added.

DYRK1A = DYRK1A (Homo sapiens (Human), UniProt Q13627); assay: In vitro DYRK1A inhibition assay
Description: as §1
The 2×DYRK1A/Ser/Thr 18 mixture was prepared in 50 mM HEPES pH 7.5, 0.01% BRIJ-35, 10 mM MgCl2, 1 mM EGTA.

LRRK2 G2019S = LRRK2 G2019S (Homo sapiens (Human), UniProt Q5S007, G2019S); assay: LRRK2 G2019S Kinase Assay; conditions: 10 μM ATP
Description: Procedure: Enzyme was incubated with substrate peptide in reaction buffer in the presence and absence of test compounds or Staurosporine. All additions were done on ice, followed by the addition of ATP mix. Wells were uniformly mixed using an Eppendorff plate shaker and incubated at 30° C. for 20 min, and stopped by the addition of 5 μl of 3% phosphoric acid. Volume was increased to 100 μl by adding 0.8% phosphoric acid which was then transferred to PC filter mats (Millipore), pre-equilibrated with 70% ethanol and water. Plates were washed thrice with 100 μl 0.8% phosphoric acid and dried for an hour at 60° C. 100 μl scintillation fluid was added into each well and reading taken in Perkin Elmer TOPCOUNT beta counter. […] A validation EC50 curve was generated by plotting CPM for each Staurosporine concentration on y-axis against the Log concentration of Staurosporine (nM) on the x-axis followed by a best fit curve through the points.
After 1 hour Kinase Reaction incubation, 5 μL of Detection Mix was added.

Chain of LRRK2 G2019S (Q5S007 970-2527 G2019S): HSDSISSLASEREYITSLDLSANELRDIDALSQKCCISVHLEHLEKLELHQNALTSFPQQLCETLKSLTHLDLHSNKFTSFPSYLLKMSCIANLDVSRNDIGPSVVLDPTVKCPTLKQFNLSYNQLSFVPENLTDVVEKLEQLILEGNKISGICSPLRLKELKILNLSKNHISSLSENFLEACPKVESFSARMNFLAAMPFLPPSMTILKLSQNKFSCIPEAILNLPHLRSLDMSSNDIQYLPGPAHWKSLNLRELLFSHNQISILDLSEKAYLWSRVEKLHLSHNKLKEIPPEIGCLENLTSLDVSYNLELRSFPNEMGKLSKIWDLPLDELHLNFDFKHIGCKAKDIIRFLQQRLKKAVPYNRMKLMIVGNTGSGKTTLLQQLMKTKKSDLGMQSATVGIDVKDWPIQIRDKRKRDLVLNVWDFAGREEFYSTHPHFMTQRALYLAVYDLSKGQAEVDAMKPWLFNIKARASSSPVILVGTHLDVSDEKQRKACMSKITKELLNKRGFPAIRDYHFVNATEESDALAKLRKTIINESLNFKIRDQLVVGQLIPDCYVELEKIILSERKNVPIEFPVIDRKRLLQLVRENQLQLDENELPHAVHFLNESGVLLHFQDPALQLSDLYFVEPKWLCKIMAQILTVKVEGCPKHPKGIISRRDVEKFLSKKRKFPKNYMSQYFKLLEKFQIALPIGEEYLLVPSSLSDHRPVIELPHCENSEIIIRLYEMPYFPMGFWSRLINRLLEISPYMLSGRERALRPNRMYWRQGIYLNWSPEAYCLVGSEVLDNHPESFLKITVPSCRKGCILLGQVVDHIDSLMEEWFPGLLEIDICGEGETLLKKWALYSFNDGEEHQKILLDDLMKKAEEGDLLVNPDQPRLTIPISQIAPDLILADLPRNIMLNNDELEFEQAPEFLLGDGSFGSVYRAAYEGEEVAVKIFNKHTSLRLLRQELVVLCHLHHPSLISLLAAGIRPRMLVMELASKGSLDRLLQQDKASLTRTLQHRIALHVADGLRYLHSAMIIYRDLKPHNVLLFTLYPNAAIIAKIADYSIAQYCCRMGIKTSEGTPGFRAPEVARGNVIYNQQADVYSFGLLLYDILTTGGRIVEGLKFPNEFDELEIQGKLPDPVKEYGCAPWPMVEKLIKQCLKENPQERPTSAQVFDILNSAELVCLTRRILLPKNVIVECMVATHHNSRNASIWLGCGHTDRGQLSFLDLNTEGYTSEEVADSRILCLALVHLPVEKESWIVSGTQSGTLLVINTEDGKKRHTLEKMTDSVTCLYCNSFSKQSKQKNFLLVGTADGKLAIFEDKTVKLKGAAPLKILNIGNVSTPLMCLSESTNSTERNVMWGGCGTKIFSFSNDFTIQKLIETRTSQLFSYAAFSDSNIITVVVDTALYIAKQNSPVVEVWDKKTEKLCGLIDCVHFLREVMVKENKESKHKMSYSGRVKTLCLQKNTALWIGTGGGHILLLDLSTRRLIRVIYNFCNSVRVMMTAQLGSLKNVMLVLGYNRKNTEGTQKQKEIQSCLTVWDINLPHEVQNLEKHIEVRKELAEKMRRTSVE
Chain of LRRK2 (Q5S007 970-2527): as the sequence (Q5S007 970-2527 G2019S) above, with S1050G counted along it

IC50 (LRRK2) | IC50 (DYRK1A) | IC50 (LRRK2 G2019S) | SMILES
> 500 nM | > 500 nM | > 500 nM | Cc1n[nH]c2ncc(NC3CCCN(Cc4ccc(F)cc4)C3)cc12 (stereo not shown) [Compound 22, N-(1-(4-fluorobenzyl)piperidine-3-yl)-3-methyl-1H-pyrazolo[3,4-b]pyridine-5-amine]
> 500 nM | > 500 nM | > 500 nM | Cc1n[nH]c2ncc(NC3CCCN(Cc4ccc(Cl)cc4)C3)cc12 (stereo not shown) [Compound 27, N-(1-(4-Chlorobenzyl)piperidin-3-yl)-3-methyl-1H-pyrazolo[3,4-b]pyridid-5-amine]
> 500 nM | > 500 nM | > 500 nM | Cc1n[nH]c2ncc(NC3CCCN(Cc4ccc(Cl)c(Cl)c4)C3)cc12 (stereo not shown) [Compound 28, N-(1-(3,4-Chlorobenzyl)piperidin-3-yl)-3-methyl-1H-pyrazolo[3,4-b]pyridid-5-amine]
> 500 nM | > 500 nM | > 500 nM | Cc1n[nH]c2ncc(-c3cncc(OCCN4CCN(C)CC4)n3)cc12 [Compound 33, 5-(6-(2-(4-methylpiperazin-1-yl)ethoxy)pyrazin-2-yl)-3-methyl-1H-pyrazolo[3,4-b]pyridine]
> 500 nM | > 500 nM | > 500 nM | Cc1n[nH]c2ncc(-c3cncc(NC(=O)C4CCN(C)CC4)n3)cc12 [Compound 39]
> 500 nM | > 1000 nM | > 500 nM | Cc1n[nH]c2ncc(-c3cncc(N4CCCC4=O)n3)cc12 [Compound 48, 1-(6-(3-methyl-1H-pyrazolo[3,4-b]pyridin-5-yl)pyrazin-2-yl)pyrrolidin-2-one]
> 500 nM | > 1000 nM | > 500 nM | Cc1n[nH]c2ncc(-c3cncc(NC4CCN(C)C4)n3)cc12 (stereo not shown) [Compound 51, 6-(3-methyl-1H-pyrazolo[3,4-b]pyridin-5-yl)-N-(1-methylpyrrolidin-3-yl)pyrazin-2-amine]
> 500 nM | > 1000 nM | > 500 nM | Cc1n[nH]c2ncc(-c3cncc(N4CCC(F)(F)C4)n3)cc12 [Compound 56, 5-(6-(3,3-difluoropyrrolidin-1-yl)pyrazin-2-yl)-3-methyl-1H-pyrazolo[3,4-b]pyridine]
< 500 nM | > 500 nM | < 500 nM | Cc1n[nH]c2ncc(-c3cncc(N4CCN(CCO)CC4)n3)cc12 [Compound 59, 2-(4-(6-(3-methyl-1H-pyrazolo[3,4-b]pyridin-5-yl)pyrazin-2-yl)piperazin-1-yl)ethanol]
< 500 nM | > 1000 nM | < 500 nM | Cc1n[nH]c2ncc(-c3cncc(N4CCN(C)CC4)n3)cc12 [Compound 65, 3-methyl-5-(6-(4-methylpiperazin-1-yl)pyrazin-2-yl)-1H-pyrazolo[3,4-b]pyridine]
< 500 nM | > 1000 nM | < 500 nM | Cc1n[nH]c2ncc(-c3cncc(NCCN(C)C)n3)cc12 [Compound 68, N^1,N^1-dimethyl-N2-(6-(3-methyl-1H-pyrazolo[3,4-b]pyridin-5-yl)pyrazin-2-yl)ethane-1,2-diamine]
> 500 nM | > 1000 nM | > 500 nM | Cc1n[nH]c2ncc(-c3cncc(C(=O)N4CCCCC4)n3)cc12 [Compound 77, (6-(3-methyl-1H-pyrazolo[3,4-b]pyridin-5-yl)pyrazin-2-yl)(piperidin-1-yl)metha-none]
< 500 nM | < 500 nM | < 500 nM | Cc1n[nH]c2ncc(-c3cncc(NC4CCN(CCO)CC4)n3)cc12 [Compound 81, 2-(4-((6-(3-methyl-1H-pyrazolo[3,4-b]pyridin-5-yl)pyrazin-2-yl)amino)piperidin-1-yl)ethanol]
> 500 nM | > 500 nM | > 500 nM | Cc1n[nH]c2ncc(-c3cncc(N4CCNC(=O)C4)n3)cc12 [Compound 83, 4-(6-(3-methyl-1H-pyrazolo[3,4-b]pyridin-5-yl)pyrazin-2-yl)piperazin-2-one]
> 500 nM | > 500 nM | > 500 nM | Cc1n[nH]c2ncc(-c3cncc(NC4CCN(C(C)C)CC4)n3)cc12 [Compound 87, N-(1-isopropylpiperidin-4-yl)-6-(3-methyl-1H-pyrazolo[3,4-b]pyridin-5-yl)pyrazin-2-amine]
< 500 nM | < 500 nM | < 500 nM | Cc1n[nH]c2ncc(-c3cncc(N4CCc5ccccc54)n3)cc12 [Compound 90, 5-(6-(indolin-1-yl)pyrazin-2-yl)-3-methyl-1H-pyrazolo[3,4-b]pyridine]

IC50 (LRRK2) | IC50 (DYRK1A) | IC50 (LRRK2 G2019S) | SMILES
< 500 nM | > 500 nM | < 500 nM | Cc1n[nH]c2ncc(-c3cncc(Nc4cccc(N5CCCC5=O)c4)n3)cc12 [Compound 94, 1-(3-((6-(3-methyl-1H-pyrazolo[3,4-b]pyridin-5-yl)pyrazin-2-yl)amino)phenyl)pyrrolidin-2-one]
> 1000 nM | > 1000 nM | > 1000 nM | Cc1n[nH]c2ncc(-c3cccc(NC4CCN(C)CC4)c3)cc12 [Compound 98, 1-methyl-N-(3-(3-methyl-1H-pyrazolo[3,4-b]pyridin-5-yl)phenyl)piperidin-4-amine]
> 500 nM | > 500 nM | > 500 nM | Cc1n[nH]c2ncc(-c3cccc(NC4CCN(C)CC4)n3)cc12 [Compound 102, 6-(3-methyl-1H-pyrazolo[3,4-b]pyridin-5-yl)-N-(1-methylpiperidin-4-yl)pyridin-2-amine]
> 500 nM | > 500 nM | > 500 nM | Cc1n[nH]c2ncc(-c3cnn(C)c3)cc12 [Compound 108, 3-methyl-5-(1-methyl-1H-pyrazol-4-yl)-1H-pyrazolo[3,4-b]pyridine]
< 500 nM | < 500 nM | < 500 nM | CN1CCN(c2cncc(-c3cnc4[nH]ccc4c3)n2)CC1 [Compound 125, 5-(6-(4-methylpiperazin-1-yl)pyrazin-2-yl)-1H-pyrrolo[2,3-b]pyridine]
< 500 nM | < 500 nM | < 500 nM | OCCN1CCN(c2cncc(-c3cnc4[nH]ccc4c3)n2)CC1 [Compound 126, 2-(4-(6-(1H-pyrrolo[2,3-b]pyridin-5-yl)pyrazin-2-yl)piperazin-1-yl)ethanol]
> 500 nM | > 500 nM | > 500 nM | CN(C)CCNc1cncc(-c2cnc3[nH]ccc3c2)n1 [Compound 127, N1-(6-(1H-pyrrolo[2,3-b]pyridin-5-yl)pyrazin-2-yl)-N2,N2-dimethylethane-1,2-diamine]
> 500 nM | > 500 nM | > 500 nM | c1cnc(N2CCCC2)c(-c2cnc3[nH]ccc3c2)n1 [Compound 128, 5-(3-(pyrrolidin-1-yl)pyrazin-2-yl)-1H-pyrrolo[2,3-b]pyridine]
> 500 nM | > 500 nM | > 500 nM | O=C1CCCN1c1cncc(-c2cnc3[nH]ccc3c2)n1 [Compound 131, 1-(6-(1H-pyrrolo[2,3-b]pyridin-5-yl)pyrazin-2-yl)pyrrolidin-2-one]
> 500 nM | > 500 nM | > 500 nM | FC1(F)CCN(c2cncc(-c3cnc4[nH]ccc4c3)n2)C1 [Compound 135, 5-(6-(3,3-difluoropyrrolidin-1-yl)pyrazin-2-yl)-1H-pyrrolo[2,3-b]pyridine]
> 1000 nM |  | > 1000 nM | Cc1n[nH]c2ncc(-c3ccc(N4CCN(C)CC4)cc3)cc12 [Compound 161, 3-methyl-5-(4-(4-methylpiperazin-1-yl)phenyl)-1H-pyrazolo[3,4-b]pyridine]
> 1000 nM |  | > 1000 nM | Cc1n[nH]c2ncc(Nc3cccc(CN4CCN(CCO)CC4)c3)cc12 [Compound 164, 2-(4-(3-((3-methyl-1H-pyrazolo[3,4-b]pyridin-5-yl)amino)benzyl)piperazin-1-yl)ethanol]
> 1000 nM |  | > 1000 nM | Cc1n[nH]c2ncc(Nc3ccc(CN4CCN(C)CC4)cc3)cc12 [Compound 167, 3-methyl-N-(4-((4-methylpiperazin-1-yl)methyl)phenyl)-1H-pyrazolo[3,4-b]pyridin-5-amine]
> 1000 nM |  | > 1000 nM | Cc1n[nH]c2ncc(Nc3ccc(N4CCN(C)CC4)c(F)c3)cc12 [Compound 170, N-(3-fluoro-4-(4-methylpiperazin-1-yl)phenyl)-3-methyl-1H-pyrazolo[3,4-b]pyridin-5-amine]
> 1000 nM |  | > 1000 nM | Cc1n[nH]c2ncc(Nc3cncc(Cl)n3)cc12 [Compound 171, N-(6-chloropyrazin-2-yl)-3-methyl-1H-pyrazolo[3,4-b]pyridin-5-amine]
